Type in all cases: in vivo
In assay [1] the test system is Beet Armyworm (Spodoptera exigua, LAPHEG). Kind of assay: Bioassay on Beet Armyworm (BAW), 128-well diet tray assay. An outline of the steps: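 Second-instar larvae, one to five per well, placed on artificial diet surface-treated with 50 μg/cm^2 compound applied in 90:10 acetone-water and dried. Held 5–7 days at 25° C., 14:10 light-dark. Percent mortality recorded per well and averaged over eight wells.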

In assay [2] the test system is Cabbage Looper (Trichoplusia ni, TRIPNI). Put plainly: Bioassay on Cabbage Looper (CL), 128-well diet tray assay. The following applies: Trichoplusia ni. An outline of the steps: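 Second-instar larvae, one to five per well, placed on artificial diet treated with 50 μg/cm^2 test molecule in 90:10 acetone-water, dried before infestation. Held 5–7 days at 25° C, 14:10 light-dark; percent mortality averaged over eight wells.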

Assay [3] has as its system Yellow Fever Mosquito (Aedes aegypti, AEDSAE). Kind of assay: Bioassay on Yellow Fever Mosquito (YFM), 96-well plate larval assay. Conditions: for YFM (Biological Results, rating): Species YFM (Yellow Fever Mosquito); for YFM rating: Yellow Fever Mosquito, 96-well plate larval assay. An outline of the steps:
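Compound stocks at 4000 ppm in DMSO were diluted with 90:10 water/acetone, and 15 μL aliquots were dispensed into six replicate plates. About 1-day-old larvae in liver-powder water were added per well. Plates were covered and held at room temperature for 3 days before each well was scored for mortality.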

Where [4] appears, read: Species BAW (Beet Armyworm), read-out: BAW (Biological Results, rating).
[5] abbreviates: Species CL (Cabbage Looper), read-out: CL (Biological Results, rating).
Where [6] appears, read: Beet Armyworm, 128-well diet tray assay, read-out: BAW rating.
The mark [7] stands for this setting: Cabbage Looper, 128-well diet tray assay, read-out: CL rating.

Results on 19 compounds are retold here after US10219516B2, “Molecules having pesticidal utility, and intermediates, compositions, and processes, related thereto” (priority 2015, dated 2019).

Like-named read-outs stand apart in the source and are kept apart here.

Take `O=C(Nc1cncc([N+](=O)[O-])c1)c1cc(NC(=O)[C@H]2[C@H](c3cc(Cl)cc(Cl)c3)C2(Cl)Cl)ccc1Cl` [F358, 2-Chloro-5-((1R,3R)-2,2-dichloro-3-(3,5-dichlorophenyl)cyclopropane-1-carboxamido)-N-(5-nitropyridin-3-yl)benzamide]: the pest or weed control at 50 µg/cm2 in assay [1] (setting [4]) and in assay [2] (setting [5]) was 50 to 100% in each case. In assay [3], the “YFM (Biological Results, rating)” value was “A (80-100)”.
As to `CN(C)c1ccc(NC(=O)c2cc(NC(=O)[C@H]3[C@H](c4cc(Cl)cc(Cl)c4)C3(Cl)Cl)ccc2Cl)cc1` (relative stereo) [F171, trans-2-Chloro-5-(2,2-dichloro-3-(3,5-dichlorophenyl)cyclopropane-1-carboxamido)-N-(4-(dimethylamino)phenyl)benzamide], the pest or weed control at 50 µg/cm2 in assay [1] (setting [4]) and in assay [2] (setting [5]) was 50 to 100% throughout. Further, in assay [3], the “YFM (Biological Results, rating)” value is recorded as “A (80-100)”.
With `C=Cc1ccc(NC(=O)c2cc(NC(=O)[C@H]3[C@H](c4cc(Cl)cc(Cl)c4)C3(Cl)Cl)ccc2Cl)nc1F` (relative stereo) [F397, 2-Chloro-5-(trans-2,2-dichloro-3-(3,5-dichlorophenyl)cyclopropane-1-carboxamido)-N-(6-fluoro-5-vinylpyridin-2-yl)benzamide], the pest or weed control at 50 µg/cm2 in assay [1] (setting [6]) and in assay [2] (setting [7]) was 50 to 100% each time. In addition, the YFM rating result in assay [3] is given as “A (80-100)”.
Regarding `CC(=O)Nc1ccc(NC(=O)c2cc(NC(=O)[C@H]3[C@H](c4ccc(F)c(Cl)c4)C3(Cl)Cl)ccc2Cl)cc1` (relative stereo) [F260, trans-N-(4-Acetamidophenyl)-2-chloro-5-(2,2-dichloro-3-(3-chloro-4-fluorophenyl)cyclopropane-1-carboxamido)benzamide], the pest or weed control at 50 µg/cm2 in assay [1] (setting [4]) and in assay [2] (setting [5]) was 50 to 100% each time. Moreover, in assay [3], the “YFM (Biological Results, rating)” value is on record as “A (80-100)”.
Turning to `N#Cc1cc(F)ccc1NC(=O)c1cc(NC(=O)[C@@H]2[C@@H](c3cc(Cl)cc(Cl)c3)C2(Cl)Cl)ccc1Cl` [F536, 2-Chloro-N-(2-cyano-4-fluorophenyl)-5-((1S,3S)-2,2-dichloro-3-(3,5-dichlorophenyl)cyclopropane-1-carboxamido)benzamide], the pest or weed control at 50 µg/cm2 in assay [1] (setting [6]) and in assay [2] (setting [7]) was 50 to 100% each time. Besides, the YFM rating entry in assay [3] is reported as “A (80-100)”.
For the compound `Cc1cc(F)c(NC(=O)c2cc(NC(=O)[C@H]3[C@H](c4cc(Cl)cc(Cl)c4)C3(Cl)Cl)ccc2Cl)c(C#N)c1` (relative stereo) [F300, 2-Chloro-N-(2-cyano-6-fluoro-4-methylphenyl)-5-(trans-2,2-dichloro-3-(3,5-dichlorophenyl)cyclopropane-1-carboxamido)benzamide], the pest or weed control at 50 µg/cm2 in assay [1] (setting [4]) and in assay [2] (setting [5]) was 50 to 100% throughout. For the same compound, in assay [3], the “YFM (Biological Results, rating)” value was “A (80-100)”.
`Nc1cc(NC(=O)c2cc(NC(=O)[C@H]3[C@H](c4cc(Cl)cc(Cl)c4)C3(Cl)Cl)ccc2Cl)ccc1F` (relative stereo) [F238, trans-N-(3-Amino-4-fluorophenyl)-2-chloro-5-(2,2-dichloro-3-(3,5-dichlorophenyl)cyclopropane-1-carboxamido)benzamide]: the pest or weed control at 50 µg/cm2 in assay [1] (setting [4]) and in assay [2] (setting [5]) was 50 to 100% throughout. In assay [3], the “YFM (Biological Results, rating)” value was “A (80-100)”.
With `O=C(Nc1cc(F)c(F)c(Br)c1)c1cc(NC(=O)[C@H]2[C@H](c3cc(Cl)cc(Cl)c3)C2(Cl)Cl)ccc1Cl` [F583, N-(3-Bromo-4,5-difluorophenyl)-2-chloro-5-((1R,3R)-2,2-dichloro-3-(3,5-dichlorophenyl)cyclopropane-1-carboxamido)benzamide], the pest or weed control at 50 µg/cm2 in assay [1] (setting [6]) and in assay [2] (setting [7]) was 50 to 100% in each case. In addition, the YFM rating result in assay [3] was “A (80-100)”.
Consider `C=C(F)c1ccc([C@H]2[C@H](C(=O)Nc3ccc(Cl)c(C(=O)Nc4ccc(F)cc4F)c3)C2(Cl)Cl)cc1Cl` (relative stereo) [F383, 2-Chloro-5-(trans-2,2-dichloro-3-(3-chloro-4-(1-fluorovinyl)phenyl)cyclopropane-1-carboxamido)-N-(2,4-difluorophenyl)benzamide], for which the pest or weed control at 50 µg/cm2 in assay [1] (setting [6]) and in assay [2] (setting [7]) was 50 to 100% each time. Moreover, the YFM rating entry in assay [3] is given as “A (80-100)”.
For the compound `O=C(Nc1ncc(F)c(I)c1F)c1cc(NC(=O)[C@H]2[C@H](c3cc(Cl)cc(Cl)c3)C2(Cl)Cl)ccc1Cl` (relative stereo) [F388, 2-Chloro-5-(trans-2,2-dichloro-3-(3,5-dichlorophenyl)cyclopropane-1-carboxamido)-N-(3,5-difluoro-4-iodopyridin-2-yl)benzamide], the pest or weed control at 50 µg/cm2 in assay [1] (setting [6]) and in assay [2] (setting [7]) was 50 to 100% in each case. Further, the YFM rating result in assay [3] was “A (80-100)”.
Turning to `COc1c(Cl)cc([C@H]2[C@H](C(=O)Nc3ccc(Cl)c(C(=O)Nc4ccc(F)cc4F)c3)C2(Cl)Cl)cc1Cl` (relative stereo) [F180, trans-2-Chloro-5-(2,2-dichloro-3-(3,5-dichloro-4-methoxyphenyl)cyclopropane-1-carboxamido)-N-(2,4-difluorophenyl)benzamide], the pest or weed control at 50 µg/cm2 in assay [1] (setting [4]) and in assay [2] (setting [5]) was 50 to 100% each time. Besides, the “YFM (Biological Results, rating)” value in assay [3] is reported as “A (80-100)”.
For `Cn1ccc2cc(NC(=O)c3cc(NC(=O)C4C(c5cc(Cl)cc(Cl)c5)C4(Cl)Cl)ccc3Cl)ccc21` (stereo not drawn) [F457, 2-Chloro-5-(trans)-2,2-dichloro-3-(3,5-dichlorophenyl)cyclopropane-1-carboxamido)-N-(1-methyl-1H-indol-5-yl)benzamide], the pest or weed control at 50 µg/cm2 in assay [1] (setting [6]) and in assay [2] (setting [7]) was 50 to 100% throughout. The YFM rating entry in assay [3] is on record as “A (80-100)”.
Consider `Nc1c(F)ccc(NC(=O)c2cc(NC(=O)[C@H]3[C@H](c4ccc(Br)c(Cl)c4)C3(Cl)Cl)ccc2Cl)c1F` (relative stereo) [F325, N-(3-Amino-2,4-difluorophenyl)-5-(trans-3-(4-bromo-3-chlorophenyl)-2,2-dichlorocyclopropane-1-carboxamido)-2-chlorobenzamide], for which the pest or weed control at 50 µg/cm2 in assay [1] (setting [4]) and in assay [2] (setting [5]) was 50 to 100% in each case. In assay [3], the “YFM (Biological Results, rating)” value is “A (80-100)”.
As for `CN(C(=O)c1cc(NC(=O)[C@H]2[C@H](c3ccc(Cl)c(C(F)F)c3)C2(Cl)Cl)ccc1Cl)c1ccc(F)cc1` (relative stereo) [F593, 2-Chloro-5-(trans-2,2-dichloro-3-(4-chloro-3-(difluoromethyl)phenyl)cyclopropane-1-carboxamido)-N-(4-fluorophenyl)-N-methylbenzamide], the pest or weed control at 50 µg/cm2 in assay [1] (setting [6]) and in assay [2] (setting [7]) was 50 to 100% each time. For the same compound, in assay [3], the YFM rating entry is on record as “A (80-100)”.
Take `O=C(Nc1ccc2[nH]cnc2c1)c1cc(NC(=O)C2C(c3cc(Cl)cc(Cl)c3)C2(Cl)Cl)ccc1Cl` (stereo not drawn) [F456, N-(1H-Benzo[d]imidazol-5-yl)-2-chloro-5-(trans)-2,2-dichloro-3-(3,5-dichlorophenyl)cyclopropane-1-carboxamido)benzamide]: the pest or weed control at 50 µg/cm2 in assay [1] (setting [6]) and in assay [2] (setting [7]) was 50 to 100% in each case. The YFM rating entry in assay [3] is reported as “B (More than 0-Less than 80)”.
On to `O=C(Nc1c(F)cccc1F)c1cc(NC(=O)[C@H]2[C@H](c3cc(Cl)cc(Br)c3)C2(Cl)Cl)ccc1Cl` (relative stereo) [F164, trans-5-(3-(3-Bromo-5-chlorophenyl)-2,2-dichlorocyclopropane-1-carboxamido)-2-chloro-N-(2,6-difluorophenyl)benzamide], for which the pest or weed control at 50 µg/cm2 in assay [1] (setting [4]) and in assay [2] (setting [5]) was 50 to 100% in each case. Besides, the “YFM (Biological Results, rating)” value in assay [3] was “A (80-100)”.
Consider `O=C(Nc1ccc(F)cc1F)c1cc(NC(=O)[C@H]2[C@H](c3ccc(Br)c(C(F)(F)F)c3)C2(Cl)Cl)ccc1Cl` (relative stereo) [F366, 5-(trans)-(3-(4-Bromo-3-(trifluoromethyl)phenyl)-2,2-dichlorocyclopropane-1-carboxamido)-2-chloro-N-(2,4-difluorophenyl)benzamide], for which the pest or weed control at 50 µg/cm2 in assay [1] (setting [4]) and in assay [2] (setting [5]) was 50 to 100% throughout. For the same compound, the “YFM (Biological Results, rating)” value in assay [3] is on record as “A (80-100)”.
For the compound `Cc1cc(NC(=O)OC(C)(C)C)ccc1NC(=O)c1cc(NC(=O)[C@H]2[C@H](c3ccc(F)c(Cl)c3)C2(Cl)Cl)ccc1Cl` [F290, tert-Butyl (4-(2-chloro-5-((1R,3R)-2,2-dichloro-3-(3-chloro-4-fluorophenyl)cyclopropane-1-carboxamido)benzamido)-3-methylphenyl)carbamate], the pest or weed control at 50 µg/cm2 in assay [1] (setting [4]) and in assay [2] (setting [5]) was 50 to 100% in each case. In assay [3], the “YFM (Biological Results, rating)” value was “A (80-100)”.
As for `CN(C(=O)c1cc(NC(=O)[C@H]2[C@H](c3cc(Cl)cc(C(F)(F)F)c3)C2(Cl)Cl)ccc1Cl)c1ccc(F)cc1` (relative stereo) [F88, trans-2-Chloro-5-(2,2-dichloro-3-(3-chloro-5-(trifluoromethyl)phenyl)cyclopropane-1-carboxamido)-N-(4-fluorophenyl)-N-methylbenzamide], the pest or weed control at 50 µg/cm2 in assay [1] (setting [4]) and in assay [2] (setting [5]) was 50 to 100% each time. For the same compound, in assay [3], the “YFM (Biological Results, rating)” value is on record as “B (More than 0-Less than 80)”.
